Results taken from patent US10980813B2, “Antifungal composition” (SEED RESEARCH INSTITUTE CO., LTD., priority 2017, dated 2021).
In brackets after ≈: the same amount, converted by molar mass.

Key:
Experiment in all cases: Antifungal activity, MIC by disc (diffusion) method
Saccharomyces = assay type: cell-based; conditions: YMG agar, 24 hr at 28° C., read-out: MIC (minimum inhibitory concentration) Saccharomyces
Protocol: (§1) Measurement Method of Antifungal Activity in Various Compounds
(§2) The minimum inhibitory concentration (MIC) was measured by a disc method (diffusion method). The disc method is one kind of the diffusion method, and is a method in which filter paper (disc) impregnated with an antifungal substance at a given concentration is placed on an agar medium (test plate) coated with a test bacterium and cultivated. The disc absorbs water in the medium, diffuses the antifungal substance and forms a given concentration gradient. As a result, the test bacterium forms a growth inhibition zone (circle) in the periphery of the disc, and the level of sensitivity to the antifungal substance is determined from the diameter of the inhibition circle.
(§3) Using the aforementioned method, MIC of various compounds was measured.
(§4) i: In a 100 mL flask, 20 mL of YMG or Mueller Hinton medium is produced.
(§5) ii: A loopful of the test bacterium is dissolved in the medium.
(§6) iii: The medium is cultured at 200 rpm for 24 hr in a rotary shaker set to 28° C.
(§7) i: In a 300 mL flask, 100 mL of YMG or Mueller Hinton agar medium (low melting point agar) is produced.
(§8) ii: After cooling to 37° C.-40° C., preculture medium (1 mL) is added and the mixture is agitated.
(§9) iii: The mixture is dispensed to a square petri dish (size: 100*150*17 mm) by 20 mL each.
(§10) iv: The dish is stood at room temperature until the agar is solidified.
(§11) i: The compound is diluted in ½ dilution series in 10 stages (timely changed according to compound), 50 μL of solution/pulp at each dilution stage is produced, the organic solvent is dried at room temperature and placed on a test plate.
(§12) ii: After culturing T. rubrum for 48 hr and other test bacteria for 24 hr at 28° C. in an incubator, the size of the inhibition circle was measured.
(§13) The medium composition for culture which was used for the aforementioned preculture is shown below.
(§14) [Medium Compositions for Preculture and Test Plate]
(§15) <<YMG Medium>>: For Fungus
(§16) Agar, powder 0.8% * added only when producing test plate

T. mentagrophytes = assay type: cell-based; conditions: Trichophyton mentagrophytes, YMG agar, 24 hr at 28° C., read-out: MIC (minimum inhibitory concentration) T. mentagrophytes
Protocol: as §1, §2, §3, §4, §5, §6, §7, §8, §9, §10, §11, §12, §13, §14, §15, §16

T. rubrum = assay type: cell-based; conditions: Trichophyton rubrum, YMG agar, 48 hr at 28° C., read-out: MIC (minimum inhibitory concentration) T. rubrum
Protocol: as §1, §2, §3, §4, §5, §6, §7, §8, §9, §10, §11, §12, §13, §14, §15, §16

A. fumigatus = assay type: cell-based; conditions: Aspergillus fumigatus, YMG agar, 24 hr at 28° C., read-out: MIC (minimum inhibitory concentration) A. fumigatus
Protocol: as §1, §2, §3, §4, §5, §6, §7, §8, §9, §10, §11, §12, §13, §14, §15, §16

C. parapsilosis = assay type: cell-based, Candida parapsilosis; conditions: Lodderomyces parapsilosis, YMG agar, 24 hr at 28° C., read-out: MIC (minimum inhibitory concentration) C. parapsilosis
Protocol: as §1, §2, §3, §4, §5, §6, §7, §8, §9, §10, §11, §12, §13, §14, §15, §16

Row | SMILES | MIC (Saccharomyces) [µg/mL] | MIC (T. mentagrophytes) [µg/mL] | MIC (T. rubrum) [µg/mL] | MIC (A. fumigatus) [µg/mL] | MIC (C. parapsilosis) [µg/mL]
1 | CCC1=NS(=O)(=O)OC1CC (stereo not drawn) [I-3b] | 4 (≈ 22.6 µM) | 2 (≈ 11.3 µM) | 2 (≈ 11.3 µM) | 4 (≈ 22.6 µM) | 4 (≈ 22.6 µM)
2 | CC1=NS(=O)(=O)N=C1C [I-4b] | 16 (≈ 109 µM) | 4 (≈ 27.4 µM) | 4 (≈ 27.4 µM) | 16 (≈ 109 µM) | 16 (≈ 109 µM)
3 | O=S1(=O)N=CC(CCc2ccc(F)cc2)=N1 [I-4c] | 8 (≈ 33.3 µM) | 2 (≈ 8.32 µM) | 2 (≈ 8.32 µM) | 8 (≈ 33.3 µM) | 8 (≈ 33.3 µM)
4 | O=S1(=O)N=CC(CCc2ccc(Cl)cc2)=N1 [I-4d] | 8 (≈ 31.2 µM) | 2 (≈ 7.79 µM) | 2 (≈ 7.79 µM) | 8 (≈ 31.2 µM) | 8 (≈ 31.2 µM)
5 | O=S1(=O)N=Cc2cccn21 [I-5b] | 16 (≈ 102 µM) | 4 (≈ 25.6 µM) | 4 (≈ 25.6 µM) | 16 (≈ 102 µM) | 16 (≈ 102 µM)
6 | O=S1(=O)N=CC2=COc3ccc(Cl)cc3C2=N1 [I-6c] | 4 (≈ 14.9 µM) | 1 (≈ 3.72 µM) | 1 (≈ 3.72 µM) | 4 (≈ 14.9 µM) | 4 (≈ 14.9 µM)
7 | O=S1(=O)Oc2ccc(F)cc2C2ON21 (stereo not drawn) [II-1a] | 4 (≈ 18.4 µM) | 1 (≈ 4.6 µM) | 1 (≈ 4.6 µM) | 4 (≈ 18.4 µM) | 4 (≈ 18.4 µM)
8 | N#Cc1ccc2c(c1)C1ON1S(=O)(=O)O2 (stereo not drawn) [II-1g] | 4 (≈ 17.8 µM) | 1 (≈ 4.46 µM) | 1 (≈ 4.46 µM) | 4 (≈ 17.8 µM) | 4 (≈ 17.8 µM)
9 | O=S1(=O)Oc2c(Cl)cc(Cl)cc2C2ON21 (stereo not drawn) [II-1h] | 4 (≈ 14.9 µM) | 1 (≈ 3.73 µM) | 1 (≈ 3.73 µM) | 4 (≈ 14.9 µM) | 4 (≈ 14.9 µM)
10 | O=[N+]([O-])c1cc(Cl)cc2c1OS(=O)(=O)N1OC21 (stereo not drawn) [II-1i] | 4 (≈ 14.4 µM) | 1 (≈ 3.59 µM) | 1 (≈ 3.59 µM) | 4 (≈ 14.4 µM) | 4 (≈ 14.4 µM)
11 | CC12ON1S(=O)(=O)Oc1ccccc12 (stereo not drawn) [II-1j] | 8 (≈ 37.5 µM) | 2 (≈ 9.38 µM) | 2 (≈ 9.38 µM) | 8 (≈ 37.5 µM) | 8 (≈ 37.5 µM)
12 | CC12ON1S(=O)(=O)Nc1ccccc12 (stereo not drawn) [II-1k] | 8 (≈ 37.7 µM) | 2 (≈ 9.42 µM) | 2 (≈ 9.42 µM) | 8 (≈ 37.7 µM) | 8 (≈ 37.7 µM)
13 | O=S1(=O)Nc2ccc(Cl)cc2C2(c3ccccc3)ON21 (stereo not drawn) [II-1l] | 8 (≈ 25.9 µM) | 2 (≈ 6.48 µM) | 2 (≈ 6.48 µM) | 8 (≈ 25.9 µM) | 8 (≈ 25.9 µM)
14 | CC1=CC2(C)ON2S(=O)(=O)N1 (stereo not drawn) [II-2b] | 16 (≈ 90.8 µM) | 2 (≈ 11.4 µM) | 2 (≈ 11.4 µM) | 16 (≈ 90.8 µM) | 16 (≈ 90.8 µM)
15 | CC1=C(C)C2(c3ccccc3)ON2S(=O)(=O)N1 (stereo not drawn) [II-2d] | 8 (≈ 31.7 µM) | 2 (≈ 7.93 µM) | 2 (≈ 7.93 µM) | 8 (≈ 31.7 µM) | 8 (≈ 31.7 µM)

Continued by falling MIC (Saccharomyces), values first:

Row | MIC (Saccharomyces) [µg/mL] | MIC (T. mentagrophytes) [µg/mL] | MIC (T. rubrum) [µg/mL] | MIC (A. fumigatus) [µg/mL] | MIC (C. parapsilosis) [µg/mL] | SMILES
16 | 8 (≈ 40.6 µM) | 2 (≈ 10.1 µM) | 2 (≈ 10.1 µM) | 8 (≈ 40.6 µM) | 8 (≈ 40.6 µM) | O=S1(=O)N=C(c2ccccc2)CO1 [I-3c]
17 | 8 (≈ 34.5 µM) | 2 (≈ 8.63 µM) | 2 (≈ 8.63 µM) | 8 (≈ 34.5 µM) | 8 (≈ 34.5 µM) | O=S1(=O)N=C(c2ccc(Cl)cc2)CO1 [I-3d]
18 | 8 (≈ 25.9 µM) | 2 (≈ 6.48 µM) | 2 (≈ 6.48 µM) | 8 (≈ 25.9 µM) | 8 (≈ 25.9 µM) | CCCCCCCCN1CC(c2ccccc2)=NS1(=O)=O [I-3e]
19 | 8 (≈ 60.5 µM) | 2 (≈ 15.1 µM) | 2 (≈ 15.1 µM) | 8 (≈ 60.5 µM) | 8 (≈ 60.5 µM) | CC1=NS(=O)(=O)N=C1 [I-4a]
20 | 8 (≈ 50.9 µM) | 2 (≈ 12.7 µM) | 2 (≈ 12.7 µM) | 8 (≈ 50.9 µM) | 8 (≈ 50.9 µM) | O=S1(=O)N=Cc2nccn21 [I-5a]
21 | 8 (≈ 34.9 µM) | 2 (≈ 8.73 µM) | 2 (≈ 8.73 µM) | 8 (≈ 34.9 µM) | 8 (≈ 34.9 µM) | COc1ccc2c(c1)C1ON1S(=O)(=O)O2 (stereo not drawn) [II-1d]
22 | 8 (≈ 41.8 µM) | 2 (≈ 10.5 µM) | 2 (≈ 10.5 µM) | 8 (≈ 41.8 µM) | 8 (≈ 41.8 µM) | CC1=C(C)C2(C)ON2S(=O)(=O)O1 (stereo not drawn) [II-2a]
23 | 8 (≈ 33.6 µM) | 2 (≈ 8.39 µM) | 2 (≈ 8.39 µM) | 8 (≈ 33.6 µM) | 8 (≈ 33.6 µM) | CC1=CC2(c3ccccc3)ON2S(=O)(=O)N1 (stereo not drawn) [II-2c]
24 | 4 (≈ 17.1 µM) | 1 (≈ 4.27 µM) | 1 (≈ 4.27 µM) | 4 (≈ 17.1 µM) | 4 (≈ 17.1 µM) | O=S1(=O)N=CC2=COc3ccccc3C2=N1 [I-6a]
25 | 4 (≈ 15.9 µM) | 1 (≈ 3.96 µM) | 1 (≈ 3.96 µM) | 4 (≈ 15.9 µM) | 4 (≈ 15.9 µM) | O=S1(=O)N=CC2=COc3ccc(F)cc3C2=N1 [I-6b]
26 | 4 (≈ 17.1 µM) | 1 (≈ 4.28 µM) | 1 (≈ 4.28 µM) | 4 (≈ 17.1 µM) | 4 (≈ 17.1 µM) | O=S1(=O)Oc2ccc(Cl)cc2C2ON21 (stereo not drawn) [II-1b]
27 | 4 (≈ 14.4 µM) | 1 (≈ 3.6 µM) | 1 (≈ 3.6 µM) | 4 (≈ 14.4 µM) | 4 (≈ 14.4 µM) | O=S1(=O)Oc2ccc(Br)cc2C2ON21 (stereo not drawn) [II-1c]
28 | 4 (≈ 16.4 µM) | 1 (≈ 4.1 µM) | 1 (≈ 4.1 µM) | 4 (≈ 16.4 µM) | 4 (≈ 16.4 µM) | O=[N+]([O-])c1ccc2c(c1)C1ON1S(=O)(=O)O2 (stereo not drawn) [II-1e]
29 | 4 (≈ 15.6 µM) | 1 (≈ 3.89 µM) | 1 (≈ 3.89 µM) | 4 (≈ 15.6 µM) | 4 (≈ 15.6 µM) | COC(=O)c1ccc2c(c1)C1ON1S(=O)(=O)O2 (stereo not drawn) [II-1f]
30 | 4 (≈ 24.2 µM) | 2 (≈ 12.1 µM) | 2 (≈ 12.1 µM) | 4 (≈ 24.2 µM) | 4 (≈ 24.2 µM) | CC1OS(=O)(=O)N2OC12C (stereo not drawn) [II-3a]
